≈ marks a conversion by molar mass, not a printed value. Read-outs that look alike come from different tables or passages of the source.
How the values were obtained:
[1] = Example 4: performance and water miscibility in presence of sodium percarbonate, undissolved TAED at T=0 and T=6 months; type: physicochemical
Experimental: The TAED:Sodium percarbonate ratio used for the study was 1:2.5 w/w. […] This 100 mL solution was either used as it was or it was further diluted to with 900 mL water to make a 1 L sample.

[2] = Example 3: performance and water miscibility in presence of sodium percarbonate, weight of remaining material
Experimental: The experiment was carried out to check the performance and water miscibility of TAED in presence of sodium percarbonate. 1 gram of TAED with 2.5 gram of sodium percarbonate was added 1 litre water and stirred at 500 rpm using overhead stirrer. In Experiment set up the amount of water used for the study was 1 litre.

[3] = cited from earlier work

- Undissolved TAED ([1]; 1 g TAED, 1 L, 1 min, T = 6 months (40° C., 75% relative humidity)): 90 mg
- Undissolved TAED ([1]; 1 g TAED, 1 L, 4 min, T = 0): 60 mg
- Undissolved TAED ([1]; 1 g TAED, 1 L, 4 min, T = 6 months (40° C., 75% relative humidity)): 60 mg
- Undissolved TAED ([1]; 1 g TAED, 100 mL diluted to 1 L, 1 min, T = 0): 90 mg
- Undissolved TAED ([1]; 1 g TAED, 100 mL water, stirring 1 min, T = 6 months (40° C., 75% relative humidity)): 150 mg
- Undissolved TAED ([1]; 1 g TAED, 100 mL water, stirring 4 min, T = 0): 100 mg
- Undissolved TAED ([1]; 1 g TAED, 100 mL water, stirring 4 min, T = 6 months (40° C., 75% relative humidity)): 100 mg
- Undissolved TAED ([1]; 1 g TAED, sodium percarbonate 1:2.5 w/w, 100 mL water, stirring 1 min, T = 0): 150 mg
- Undissolved TAED ([1]; 3 gram TAED, 1 litre, stirring 1 min, T = 0): 1.8 gram
- Undissolved TAED ([1]; 3 gram TAED, 1 litre, stirring 1 min, T = 6 month): 1.8 gram
- Undissolved TAED ([1]; 3 gram TAED, 1 litre, stirring 4 min, T = 0): 1.2 gram
- Undissolved TAED ([1]; 3 gram TAED, 1 litre, stirring 4 min, T = 6 month): 1.2 gram
- Undissolved TAED ([1]; 3 gram TAED, 100 ml water, stirring 1 min, T = 0): 2 gram
- Undissolved TAED ([1]; 3 gram TAED, 100 ml water, stirring 1 min, T = 6 month): 2 gram
- Undissolved TAED ([1]; 3 gram TAED, 100 ml water, stirring 4 min, T = 0): 1.8 gram
- Undissolved TAED ([1]; 3 gram TAED, 100 ml water, stirring 4 min, T = 6 month): 1.8 gram
- amount remained after 5 min ([2]; 100 ml water): 800 mg
- amount remained after 5 min ([2]; 250 ml water): 750 mg
- amount remained after 5 min ([2]; 500 ml water): 690 mg
Structure (SMILES): CC(=O)N(CCN(C(C)=O)C(C)=O)C(C)=O [TAED (Commercially available), Tetraacetylethylenediamine]
- solubility ([3]; 20° C.): 200 µg/mL (≈ 876 µM)
- solubility [3]: around 200 mg/L

Source: patent US12692461B2, “Composite form of tetraacetylenediamine” (ONE1STAR SOLUTIONS LIMITED, priority 2020, dated 2026)
